Results on one molecule are retold here after ChEMBL document CHEMBL5728681, “Macrocyclic compounds as TRK kinase inhibitors and uses thereof” (2021).

A word on the IC50: it is the concentration that gives 50% inhibition.

For the test, the target named is High affinity nerve growth factor receptor (Homo sapiens, UniProt P04629). Kind of test: HotSpot Assay: The HotSpot assay platform was used to measure kinase/inhibitor interactions as described in Anastassiadis et al., Nat Biotechnol. 29:1039-45, 2011. In brief, for each reaction, kinase and substrate were mixed in a buffer containing 20 mM HEPES (pH 7.5), 10 mM MgCl2, 1 mM EGTA, 0.02% Brij35, 0.02 mg/mL BSA, 0.1 mM Na3VO4, 2 mM DTT, and 1% DMSO. Compounds were then added to each reaction mixture. After a 20-min incubation, ATP (Sigma-Aldrich) and [γ-33P] ATP (PerkinElmer) were added at a final total concentration of 100 μM. Reactions were carried out at room temperature for 2 h and spotted onto P81 ion exchange cellulose chromatography paper (Whatman). Filter paper was washed in 0.75% phosphoric acid to remove unincorporated ATP. The percent remaining kinase activity relative to a vehicle-containing (DMSO) kinase reaction was calculated for each kinase/inhibitor pair.
High affinity nerve growth factor receptor, sequence (P04629 whole entry): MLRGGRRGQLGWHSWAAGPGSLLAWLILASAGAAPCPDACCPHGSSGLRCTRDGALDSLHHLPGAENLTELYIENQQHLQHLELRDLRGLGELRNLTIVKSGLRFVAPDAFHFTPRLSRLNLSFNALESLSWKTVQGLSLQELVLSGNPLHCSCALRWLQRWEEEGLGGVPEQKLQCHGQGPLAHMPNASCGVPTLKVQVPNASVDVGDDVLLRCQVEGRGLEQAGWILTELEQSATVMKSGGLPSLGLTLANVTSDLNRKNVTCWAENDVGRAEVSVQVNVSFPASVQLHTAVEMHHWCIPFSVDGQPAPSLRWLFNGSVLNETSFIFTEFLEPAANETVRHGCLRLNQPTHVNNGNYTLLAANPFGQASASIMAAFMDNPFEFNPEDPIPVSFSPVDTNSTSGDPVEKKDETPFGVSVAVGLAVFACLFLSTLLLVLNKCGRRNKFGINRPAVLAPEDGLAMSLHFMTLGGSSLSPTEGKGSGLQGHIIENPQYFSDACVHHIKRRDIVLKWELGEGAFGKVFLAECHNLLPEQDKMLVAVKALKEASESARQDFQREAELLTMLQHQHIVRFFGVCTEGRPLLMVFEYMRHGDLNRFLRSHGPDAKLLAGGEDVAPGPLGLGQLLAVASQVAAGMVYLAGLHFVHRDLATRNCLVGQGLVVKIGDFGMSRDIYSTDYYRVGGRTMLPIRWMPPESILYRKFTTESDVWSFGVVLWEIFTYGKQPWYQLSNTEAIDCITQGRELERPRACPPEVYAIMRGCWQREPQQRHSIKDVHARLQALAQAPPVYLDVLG

With `C=C1c2ncc(F)cc2[C@H]2CCCN2c2ccn3ncc(c3n2)C(=O)N[C@@H]1C`, the IC50 was under 100 nM.
